Measured values: US11072608B2, “Pesticidally active heterocyclic derivatives with sulphur containing substituents” (SYNGENTA PARTICIPATIONS AG, priority 2014, dated 2021)

How the values were obtained:
[1] = tested on: Frankliniella occidentalis (western flower thrips); experiment: Example B10: activity against Frankliniella occidentalis, sunflower leaf disc spray; format: in vivo; details: foliar, 168 h, application rate of 200 ppm, sunflower leaf discs, mixed ages, 7 days after infestation
Protocol: Example B10: Activity Against Frankliniella occidentalis (Western Flower Thrips)
(§1) Sunflower leaf discs were placed on agar in 24-well microtiter plates and sprayed with aqueous test solutions prepared from 10,000 DMSO stock solutions. After drying the leaf discs were infested with a Frankliniella population of mixed ages. The samples were assessed for mortality 7 days after infestation.

[2] = tested on: Spodoptera littoralis (Egyptian cotton leaf worm); experiment: Example B2: activity against Spodoptera littoralis, systemic via lettuce on agar; format: in vivo; details: 144 h, application rate of 12.5 ppm, Spodoptera eggs, 6 days after infestation, read-out: control in at least one of the three categories (mortality, anti-feedancy or growth inhibition)
Source text: Example B2: Activity Against Spodoptera Littoralis (Egyptian Cotton Leaf Worm)
Test compounds were applied by pipette from 10,000 ppm DMSO stock solutions into 24-well plates and mixed with agar. Lettuce seeds were placed on the agar and the multi well plate was closed by another plate which contains also agar. After 7 days the roots have absorbed the compound and the lettuce has grown into the lid plate. The lettuce leafs were now cut off into the lid plate. Spodoptera eggs were pipetted through a plastic stencil on a humid gel blotting paper and the plate closed with it. The samples were assessed for mortality, anti-feedant effect and growth inhibition in comparison to untreated samples 6 days after infestation. The following compound gave an effect of at least 80% control in at least one of the three categories (mortality, anti-feedancy or growth inhibition) at an application rate of 12.5 ppm: P1, P4, P9, P12 and P13.

[3] = tested on: Plutella xylostella (diamond back moth); experiment: Example B3: activity against Plutella xylostella, artificial diet; format: in vivo; details: 120 h, application rate of 200 ppm, L2 larvae, 5 days after infestation, read-out: effect in at least one of the two categories (mortality or growth inhibition)
Protocol: Example B3: Activity Against Plutella xylostella (Diamond Back Moth)
24-well microtiter plates with artificial diet were treated with aqueous test solutions prepared from 10,000 ppm DMSO stock solutions by pipetting. After drying, the plates were infested with L2 larvae (10 to 15 per well). The samples were assessed for mortality and growth inhibition in comparison to untreated samples 5 days after infestation. The following compound gave an effect of at least 80% in at least one of the two categories (mortality or growth inhibition) at an application rate of 200 ppm: P1, P4, P5, P6, P8, P9, P10, P11, P12 and P13.

[4] = tested on: Bemisia tabaci (cotton white fly); experiment: Example B7: activity against Bemisia tabaci, cotton leaf disc spray; format: in vivo; details: foliar, 144 h, application rate of 200 ppm, cotton leaf discs, adult white flies, 6 days after incubation
Protocol: Example B7: Activity Against Bemisia tabaci (Cotton White Fly)
Cotton leaf discs were placed on agar in 24-well microtiter plates and sprayed with aqueous test solutions prepared from 10,000 ppm DMSO stock solutions. After drying the leaf discs were infested with adult white flies. The samples were checked for mortality 6 days after incubation.

[5] = tested on: Diabrotica balteata (corn root worm); experiment: Example B4: activity against Diabrotica balteata, maize sprouts spray; format: in vivo; details: 96 h, application rate of 200 ppm, L2 larvae, 4 days after infestation, read-out: effect in at least one of the two categories (mortality or growth inhibition)
Protocol: Example B4: Activity Against Diabrotica balteata (Corn Root Worm)
Maize sprouts, placed on an agar layer in 24-well microtiter plates were treated with aqueous test solutions prepared from 10,000 ppm DMSO stock solutions by spraying. After drying, the plates were infested with L2 larvae (6 to 10 per well). The samples were assessed for mortality and growth inhibition in comparison to untreated samples 4 days after infestation. The following compounds gave an effect of at least 80% in at least one of the two categories (mortality or growth inhibition) at an application rate of 200 ppm: P1, P4, P5, P6, P8, P9, P10, P11, P12 and P13.

[6] = tested on: Euschistus heros (neotropical brown stink bug); experiment: Example B8: activity against Euschistus heros, soybean leaf spray; format: in vivo; details: 120 h, application rate of 200 ppm, N-2 nymphs, 5 days after infestation
Protocol: Example B8: Activity Against Euschistus heros (Neotropical Brown Stink Bug)
Soybean leaf on agar in 24-well microtiter plates were sprayed with aqueous test solutions prepared from 10,000 ppm DMSO stock solutions. After drying the leaf were infested with N-2 nymphs. The samples were assessed for mortality 5 days after infestation.

[7] = tested on: Myzus persicae (green peach aphid); experiment: Example B5: activity against Myzus persicae, sunflower leaf disc spray; format: in vivo; details: foliar, 144 h, application rate of 200 ppm, sunflower leaf discs, mixed ages, 6 days after infestation
Protocol: Example B5: Activity Against Myzus persicae (Green Peach Aphid)
Sunflower leaf discs were placed on agar in a 24-well microtiter plate and sprayed with aqueous test solutions prepared from 10,000 ppm DMSO stock solutions. After drying, the leaf discs were infested with an aphid population of mixed ages. The samples were assessed for mortality 6 days after infestation.

[8] = tested on: Spodoptera littoralis (Egyptian cotton leaf worm); experiment: Example B1: activity against Spodoptera littoralis, cotton leaf disc spray; format: in vivo; details: foliar, 72 h, application rate of 200 ppm, cotton leaf discs, L1 larvae, 3 days after infestation, read-out: control in at least one of the three categories (mortality, anti-feedancy or growth inhibition)
Protocol: Example B1: Activity Against Spodoptera littoralis (Egyptian Cotton Leaf Worm)
Cotton leaf discs were placed on agar in 24-well microtiter plates and sprayed with aqueous test solutions prepared from 10,000 ppm DMSO stock solutions. After drying the leaf discs were infested with five L1 larvae. The samples were assessed for mortality, anti-feedant effect, and growth inhibition in comparison to untreated samples 3 days after infestation. Control of Spodoptera littoralis by a test sample is when at least one of mortality, anti-feedant effect, and growth inhibition is higher than the untreated sample. The following compound gave an effect of at least 80% control in at least one of the three categories (mortality, anti-feedancy or growth inhibition) at an application rate of 200 ppm: P1, P4, P5, P8, P9, P10, P12 and P13.

[9] = tested on: Thrips tabaci (onion thrips); experiment: Example B11: activity against Thrips tabaci, sunflower leaf disc spray; format: in vivo; details: foliar, 144 h, application rate of 200 ppm, sunflower leaf discs, mixed ages, 6 days after infestation
Protocol: Example B11: Activity Against Thrips tabaci (Onion Thrips)
as §1, with “10,000 ppm” for “10,000”, “Thrips” for “Frankliniella”, “6” for “7”

[10] = tested on: Myzus persicae (green peach aphid); experiment: Example B9: activity against Myzus persicae, roots of pea seedlings in test solution; format: in vivo; details: 144 h, test rate of 24 ppm, 6 days
Protocol: Example B9: Activity Against Myzus persicae (Green Peach Aphid)
Roots of pea seedlings infested with an aphid population of mixed ages were placed directly into aqueous test solutions prepared from 10,000 DMSO stock solutions. The samples were assessed for mortality 6 days after placing seedlings into test solutions.

CCSc1cc(C2CCCC2)cnc1-c1nc2cc(C(F)(F)F)cnc2n1C [Compound P2, 2-(5-cyclopentyl-3-ethylsulfanyl-2-pyridyl)-3-methyl-6-(trifluoromethyl) imidazo[4,5-b]pyridine]
melting point: 130 to 132 °C

CCSc1cc(C2CCCCC2)cnc1-c1nc2cc(C(F)(F)F)cnc2n1C [Compound P3, 2-(5-cyclohexyl-3-ethylsulfanyl-2-pyridyl)-3-methyl-6-(trifluoromethyl) imidazo[4,5-b]pyridine]
melting point: 148 to 150 °C

CCS(=O)(=O)c1cc(C2CC2)cnc1-c1nc2cc(C(F)(F)F)cnc2n1C [Compound P4, 2-(5-cyclopropyl-3-ethylsulfonyl-2-pyridyl)-3-methyl-6-(trifluoromethyl) imidazo[4,5-b]pyridine]
mortality at 200 ppm [1]: ≥ 80%
control at 12.5 ppm [2]: ≥ 80%
percent effect (mortality or growth inhibition) at 200 ppm [3]: ≥ 80%
mortality at 200 ppm [4]: ≥ 80%
percent effect (mortality or growth inhibition) at 200 ppm [5]: ≥ 80%
mortality at 200 ppm [6]: ≥ 80%
mortality at 200 ppm [7]: ≥ 80%
percent control (mortality, anti-feedancy or growth inhibition) at 200 ppm [8]: ≥ 80%

CCS(=O)(=O)c1cc(C2CCCC2)cnc1-c1nc2cc(C(F)(F)F)cnc2n1C [Compound P5]
percent effect (mortality or growth inhibition) at 200 ppm [3]: ≥ 80%
percent effect (mortality or growth inhibition) at 200 ppm [5]: ≥ 80%
mortality at 200 ppm [6]: ≥ 80%
mortality at 200 ppm [7]: ≥ 80%
percent control (mortality, anti-feedancy or growth inhibition) at 200 ppm [8]: ≥ 80%

CCS(=O)(=O)c1cc(C2CCCCC2)cnc1-c1nc2cc(C(F)(F)F)cnc2n1C [Compound P6]
percent effect (mortality or growth inhibition) at 200 ppm [3]: ≥ 80%
mortality at 200 ppm [4]: ≥ 80%
percent effect (mortality or growth inhibition) at 200 ppm [5]: ≥ 80%
mortality at 200 ppm [6]: ≥ 80%
mortality at 200 ppm [7]: ≥ 80%

CCSc1cc(C2CCC2)cnc1-c1nc2cc(C(F)(F)F)cnc2n1C [Compound P7]
melting point: 136 to 138 °C

CCS(=O)(=O)c1cc(C2CCC2)cnc1-c1nc2cc(C(F)(F)F)cnc2n1C [Compound P8]
percent effect (mortality or growth inhibition) at 200 ppm [3]: ≥ 80%
mortality at 200 ppm [4]: ≥ 80%
percent effect (mortality or growth inhibition) at 200 ppm [5]: ≥ 80%
mortality at 200 ppm [6]: ≥ 80%
mortality at 200 ppm [7]: ≥ 80%
percent control (mortality, anti-feedancy or growth inhibition) at 200 ppm [8]: ≥ 80%

CCS(=O)(=O)c1cc(C2(C#N)CC2)cnc1-c1nc2cc(C(F)(F)F)cnc2n1C [Compound P9, 1-[5-ethylsulfonyl-6-[3-methyl-6-(trifluoromethyl)imidazo[4,5-b]pyridin-2-yl]-3-pyridyl]cyclopropanecarbonitrile]
mortality at 200 ppm [1]: ≥ 80%
control at 12.5 ppm [2]: ≥ 80%
percent effect (mortality or growth inhibition) at 200 ppm [3]: ≥ 80%
mortality at 200 ppm [4]: ≥ 80%
percent effect (mortality or growth inhibition) at 200 ppm [5]: ≥ 80%
mortality at 200 ppm [6]: ≥ 80%
mortality at 200 ppm [7]: ≥ 80%
mortality at 200 ppm [9]: ≥ 80%
percent control (mortality, anti-feedancy or growth inhibition) at 200 ppm [8]: ≥ 80%
mortality at 24 ppm [10]: ≥ 80%

CCS(=O)(=O)c1cc(C2(C#N)CCC2)cnc1-c1nc2cc(C(F)(F)F)cnc2n1C [Compound P10]
percent effect (mortality or growth inhibition) at 200 ppm [3]: ≥ 80%
mortality at 200 ppm [4]: ≥ 80%
percent effect (mortality or growth inhibition) at 200 ppm [5]: ≥ 80%
mortality at 200 ppm [6]: ≥ 80%
mortality at 200 ppm [7]: ≥ 80%
percent control (mortality, anti-feedancy or growth inhibition) at 200 ppm [8]: ≥ 80%

CCS(=O)(=O)c1cc(C2(C(N)=O)CC2)cnc1-c1nc2cc(C(F)(F)F)cnc2n1C [Compound P11, 1-[5-ethylsulfonyl-6-[3-methyl-6-(trifluoromethyl)imidazo[4,5-b]pyridin-2-yl]-3-pyridyl]cyclopropanecarboxamide]
mortality at 200 ppm [1]: ≥ 80%
percent effect (mortality or growth inhibition) at 200 ppm [3]: ≥ 80%
mortality at 200 ppm [4]: ≥ 80%
percent effect (mortality or growth inhibition) at 200 ppm [5]: ≥ 80%
mortality at 200 ppm [6]: ≥ 80%
mortality at 200 ppm [7]: ≥ 80%
mortality at 24 ppm [10]: ≥ 80%

CCS(=O)(=O)c1cc(C2(C(=O)O)CC2)cnc1-c1nc2cc(C(F)(F)F)cnc2n1C [Compound P12, 1-[5-ethylsulfonyl-6-[3-methyl-6-(trifluoromethyl)imidazo[4,5-b]pyridin-2-yl]-3-pyridyl]cyclopropanecarboxylic acid]
control at 12.5 ppm [2]: ≥ 80%
percent effect (mortality or growth inhibition) at 200 ppm [3]: ≥ 80%
mortality at 200 ppm [4]: ≥ 80%
percent effect (mortality or growth inhibition) at 200 ppm [5]: ≥ 80%
mortality at 200 ppm [6]: ≥ 80%
mortality at 200 ppm [7]: ≥ 80%
percent control (mortality, anti-feedancy or growth inhibition) at 200 ppm [8]: ≥ 80%

CCS(=O)(=O)c1cc(C2(C#N)CC2)cnc1-c1nc2cc(SC(F)(F)F)cnc2n1C [Compound P13, 1-[5-ethylsulfonyl-6-[3-methyl-6-(trifluoro-methylsulfanyl)imidazo[4,5-b]pyridin-2-yl]-3-pyridyl]cyclopropanecarbonitrile]
mortality at 200 ppm [1]: ≥ 80%
control at 12.5 ppm [2]: ≥ 80%
percent effect (mortality or growth inhibition) at 200 ppm [3]: ≥ 80%
mortality at 200 ppm [4]: ≥ 80%
percent effect (mortality or growth inhibition) at 200 ppm [5]: ≥ 80%
mortality at 200 ppm [6]: ≥ 80%
mortality at 200 ppm [7]: ≥ 80%
mortality at 200 ppm [9]: ≥ 80%
percent control (mortality, anti-feedancy or growth inhibition) at 200 ppm [8]: ≥ 80%

CCS(=O)(=O)c1ccc(C2CC2)nc1-c1nc2cc(C(F)(F)F)cnc2n1C [Compound P14, 2-(6-cyclopropyl-3-ethylsulfonyl-2-pyridyl)-3-methyl-6-(trifluoromethyl)imidazo[4,5-b]pyridine]
melting point: 163 to 165 °C
